From article PMC6374188 (Organic & biomolecular chemistry, 2019)

Legend:
GlbB [1] = biological target: T1, GlbB (Caldimonas brevitalea, UniProt A8KCI8); experiment: steady-state kinetics of hydroxylation; type: biochemical; conditions: Fe(II)/alpha-ketoglutarate-dependent C4 hydroxylation
T1 sequence (A8KCI8 1-286): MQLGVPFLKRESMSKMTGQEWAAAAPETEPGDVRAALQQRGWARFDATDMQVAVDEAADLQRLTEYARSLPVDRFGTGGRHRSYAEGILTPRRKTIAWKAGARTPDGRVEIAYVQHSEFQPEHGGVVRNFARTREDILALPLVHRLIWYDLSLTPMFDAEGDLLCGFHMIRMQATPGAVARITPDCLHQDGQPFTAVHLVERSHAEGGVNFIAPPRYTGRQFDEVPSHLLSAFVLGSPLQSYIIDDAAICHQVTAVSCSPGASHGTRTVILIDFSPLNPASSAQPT

GlbB [2] = biological target: T1, GlbB; experiment: steady-state kinetics of oxidation; type: biochemical; conditions: Fe(II)/alpha-ketoglutarate-dependent; product is the sulfoxide

Compound	KM (GlbB [1])	KM (GlbB [2])
NCCCC[C@H](N)C(=O)O [compound 3, L-Lys]	steady-state kinetic parameters were obtained for hydroxylation of L-Lys, L-Leu, and L-Met (Figure S5)	–
CC(C)C[C@H](N)C(=O)O [L-Leu]	steady-state kinetic parameters were obtained for hydroxylation of L-Lys, L-Leu, and L-Met (Figure S5)	–
CSCC[C@H](N)C(=O)O [L-Met]	–	steady-state kinetic parameters were obtained for hydroxylation of L-Lys, L-Leu, and L-Met (Figure S5)
